Key:
salt depleted dogs = assay: Blood pressure lowering in salt depleted dogs; type: in vivo, dog; conditions: after oral or intravenous administration
[1] = Oral bioavailability studies in fasted dogs; conditions: dog, in vivo
Experimental: The following compositions comprising compound I were prepared and the bioavailability of each composition was determined in fasted dogs. Dogs (beagle dogs, mixed sexes, weighing about 10 kg) were fasted for at least 12 hours before dosing. Food was returned after the last blood sample was collected (24 hours). Water was available at all times. A dose equivalent to 50 or 100 milligrams of compound I was administered by mouth to each dog, followed with either 20 or 50 ml of water, respectively, through a feeding tube. […] Blood samples of 3 ml volume were anti-coagulated with EDTA. The plasma was separated by centrifugation and frozen until analyzed. Blood plasma concentrations of compound I were determined by HPLC. Bioavailability was calculated as follows: % Bioavailability=[(AUC)oral×D/(AUC)intravenous]×100. (AUC)oral and (AUC)intravenous are the areas under the curve for the plasma concentration-time profiles following oral and intravenous administration, respectively. D is a correlation factor for the difference between intravenous administration (3 mg/kg) and oral administration (about 10 mg/kg).

- times more bioavailable as soft elastic gelatin encapsulated solution compared to standard solid capsule or tablet compositions [1]: 2.1-5.2 times
SMILES: CC(C)C[C@H](O)[C@H](O)[C@H](CC1CCCCC1)NC(=O)[C@H](Cc1cscn1)NC(=O)[C@H](Cc1ccccc1)CS(=O)(=O)N1CCN(C)CC1 [compound I, (2S)-2-Benzyl-3-(1-methyl-piperazin-4-ylsulfonyl)propionyl-(L)-(4-Thiazolyl)Ala Amide of (2S, 3R, 4S)-2-Amino-1-cyclohexyl-3,4-dihydroxy-6-methylheptane]
- blood pressure (salt depleted dogs): reduces blood pressure

Source: patent US5178877A, “Encapsulated renin inhibitor composition” (priority 1991, dated 1993)
